These results are taken from PMC8286840, “Identifying SARS-CoV-2 antiviral compounds by screening for small molecule inhibitors of Nsp3 papain-like protease” (Biochemical Journal, 2021).

Where a name gives a salt, the structure may show the parent alone. Read-outs that look alike come from different tables or passages of the source.

For assay [1], the target named is T1, SARS-CoV-2 PLpro (nsp3 1564–1878) (Severe acute respiratory syndrome coronavirus 2, UniProt P0DTD1). The assay can be described thus: biochemical. Also noted: FRET-quenched peptide (Pro3) cleavage by PLpro, 10 min pre-incubation, slope over 20 min, normalised to no-compound control. To be noted: high concentration screen, read-out: % of control remaining.
In assay [2] the target is T1, SARS-CoV-2 PLpro (nsp3 1564–1878). The assay can be described thus: biochemical. To be noted: low concentration screen, read-out: % of control remaining. Set-up: FRET-quenched peptide (Pro3) cleavage by PLpro, 10 min pre-incubation, slope over 20 min, normalised to no-compound control.

In the case of `c1ccc2c3c([nH]c2c1)[C@H]1[C@@H]2CC[C@@H]([C@@H]4CCCN[C@@H]42)N1CC3`, the remaining activity at 3.75 µM in assay [1] (Well no.=3163) came out at 103%. Besides, the remaining activity at 1.25 µM in assay [2] (Well no.=3163) came to 105%. In the case of `CC[C@H]1CN2CCc3cc(OC)c(OC)cc3[C@@H]2C[C@@H]1C[C@H]1NCCc2cc(OC)c(OC)cc21`, the remaining activity at 3.75 µM in assay [1] (Well no.=3424) turned out to be 98%. In assay [2] (Well no.=3424), the remaining activity at 1.25 µM turned out to be 92.3%. With `COc1ccc2cc3[n+](cc2c1OC)CCc1cc2c(cc1-3)OCO2`, in assay [1] (Well no.=3515), the remaining activity at 3.75 µM amounted to 92.9%. The remaining activity at 1.25 µM in assay [2] (Well no.=3515) came out at 93.4%.

For `C[C@H]([C@H](O)CCC(C)(C)O)[C@H]1CC[C@@]2(O)C3=CC(=O)[C@@H]4C[C@@H](O)[C@@H](O)C[C@]4(C)[C@H]3CC[C@]12C`, the remaining activity at 3.75 µM in assay [1] (Well no.=3603) worked out at 106%. Besides, the remaining activity at 1.25 µM in assay [2] (Well no.=3603) came to 101%.

For `N#C/C(=C(/N)Sc1ccc(N)cc1)c1ccccc1C(F)(F)F`, in assay [1] (Well no.=2480), the remaining activity at 3.75 µM amounted to 98.3%. Moreover, the remaining activity at 1.25 µM in assay [2] (Well no.=2480) was found to be 98.7%. With `C=C[C@]12CN(C)[C@@H]3[C@H]4CO[C@H](C[C@H]41)[C@]1(C(=O)Nc4ccccc41)[C@@H]32`, in assay [1] (Well no.=3460), the remaining activity at 3.75 µM was 99%. Moreover, the remaining activity at 1.25 µM in assay [2] (Well no.=3460) is 98%. On to `OC[C@@H]1[C@@H](O)[C@H](O)[C@H]2[C@@H](O)CCN21`, for which the remaining activity at 3.75 µM in assay [1] (Well no.=3085) was 105%. In assay [2] (Well no.=3085), the remaining activity at 1.25 µM turned out to be 104%. Turning to `COc1cc2c3cc1Oc1c(OC)c(OC)cc4c1[C@@H](Cc1ccc(O)c(c1)Oc1ccc(cc1)C[C@@H]3N(C)CC2)N(C)CC4`, the remaining activity at 3.75 µM in assay [1] (Well no.=3633) came to 103%. In addition, the remaining activity at 1.25 µM in assay [2] (Well no.=3633) was 103%. Take `N[C@]1(C(=O)O)CC[C@H](C(=O)O)C1`: the remaining activity at 3.75 µM in assay [1] (Well no.=64) was 101%. For the same compound, in assay [2] (Well no.=64), the remaining activity at 1.25 µM turned out to be 102%.

As for `CC[C@H]1CN2CCc3cc(OC)c(OC)cc3[C@@H]2C[C@@H]1C[C@H]1NCCc2cc(O)c(OC)cc21`, the remaining activity at 3.75 µM in assay [1] (Well no.=3501) amounted to 88.7%. For the same compound, the remaining activity at 1.25 µM in assay [2] (Well no.=3501) was 96.1%. For the compound `CN1[C@@H](CC(=O)c2ccccc2)CCC[C@H]1C[C@H](O)c1ccccc1`, the remaining activity at 3.75 µM in assay [1] (Well no.=3438) is 97.7%. Besides, the remaining activity at 1.25 µM in assay [2] (Well no.=3438) was 97.9%.

For `CC1(C)CCC2=C(O1)c1ccccc1C(=O)C2=O`, the figures for the remaining activity at 3.75 µM in assay [1] (Well no.=3375) and in assay [1] (Well no.=3845) were 84.1% and 91.8%, respectively. Also, the remaining activity at 1.25 µM in assay [2] (Well no.=3375) worked out at 95.6%; in assay [2] (Well no.=3845) it was 96.1%. In the case of `CC[C@H](CC[C@@H](C)[C@H]1CC[C@H]2[C@@H]3CC=C4C[C@@H](O)CC[C@]4(C)[C@H]3CC[C@]12C)C(C)C`, in assay [1] (Well no.=3416), the remaining activity at 3.75 µM is 96.8%. Moreover, the remaining activity at 1.25 µM in assay [2] (Well no.=3416) was 93.1%. Regarding `O=C(O)[C@H]1NCCC[C@H]1C(=O)O`, in assay [1] (Well no.=1161), the remaining activity at 3.75 µM came to 106%. In assay [2] (Well no.=1161), the remaining activity at 1.25 µM was found to be 106%. For `C[C@H]1CCC[C@H](O)CCCCCc2cc(O)cc(O)c2C(=O)O1`, the remaining activity at 3.75 µM in assay [1] (Well no.=3340) is 94%. Moreover, the remaining activity at 1.25 µM in assay [2] (Well no.=3340) was 91.6%. Regarding `C[n+]1cccc(C(=O)O)c1`, the remaining activity at 3.75 µM in assay [1] (Well no.=3390) is 99.5%. Moreover, in assay [2] (Well no.=3390), the remaining activity at 1.25 µM amounted to 94.5%. On to `COC(=O)[C@@H]1[C@H]2C[C@H]3c4[nH]c5ccccc5c4CCN3C[C@@H]2CC[C@@H]1O`, for which the values for the remaining activity at 3.75 µM in assay [1] (Well no.=1699) and in assay [1] (Well no.=3378) were 103% and 87.3%, respectively. Moreover, the remaining activity at 1.25 µM in assay [2] (Well no.=3378) came out at 86.8%.

For the compound `Cc1cc(C(C)Nc2ccccc2)c2nc(N3CCOCC3)cc(=O)n2c1` (centres unmarked), in assay [1] (Well no.=2577), the remaining activity at 3.75 µM was found to be 101%. For the same compound, in assay [2] (Well no.=2577), the remaining activity at 1.25 µM is 101%.

Turning to `C[N+]1(C)CCC[C@H]1C(=O)O`, the remaining activity at 3.75 µM in assay [1] (Well no.=3118) came to 105%. For the same compound, the remaining activity at 1.25 µM in assay [2] (Well no.=3118) amounted to 107%. As for `CCCN1CC[C@@H]2c3cc(O)ccc3CC[C@@H]21`, the remaining activity at 3.75 µM in assay [1] (Well no.=1044) was 100%. In addition, in assay [2] (Well no.=1044), the remaining activity at 1.25 µM was found to be 98.9%. With `CC(C)=CC[C@@H](OC(=O)C=C(C)C)C1=CC(=O)c2c(O)ccc(O)c2C1=O`, the remaining activity at 3.75 µM in assay [1] (Well no.=3305) was 85.3%. Further, the remaining activity at 1.25 µM in assay [2] (Well no.=3305) came out at 89.6%. For `COc1cc2ncnc(Nc3ccc(F)c(Cl)c3)c2cc1OCCCN1CCOCC1` [Iressa - N-(3-chloro-4-fluoro-phenyl)-7-methoxy-6-(3-morpholin-4-ylpropoxy)quinazolin-4-amine], the remaining activity at 1.25 µM in assay [2] (Well no.=2670) was determined as 97.6%.

For `CC1(C)C(=O)N(CCN2CCC(C(=O)c3ccc(F)cc3)CC2)c2ccccc21` [LY-310,762 hydrochloride], the remaining activity at 1.25 µM in assay [2] (Well no.=833) amounted to 99.6%. As to `CC[C@H](C)C(=O)O[C@H]1C[C@@H](C)C=C2C=C[C@H](C)[C@H](CC[C@@H]3C[C@@H](O)CC(=O)O3)[C@H]21` [Lovastatin], in assay [2] (Well no.=1830), the remaining activity at 1.25 µM was determined as 99.3%. With `CCN(CC)CCCC(C)Nc1nc(C)cc(Nc2ccc3nc(C)cc(N)c3c2)n1` (centres unmarked) [NSC 23766 (trihydrochloride)], in assay [2] (Well no.=7865), the remaining activity at 1.25 µM was found to be 98.1%.

With `Nc1[nH]nc2nc3ccccc3nc12` [NSC 693868 - 1H-Pyrazolo[3,4-b]quinoxalin-3-amine], in assay [2] (Well no.=2476), the remaining activity at 1.25 µM turned out to be 95.5%. For `CN(C)C(=O)Oc1cccc([N+](C)(C)C)c1` [Neostigmine bromide], the remaining activity at 1.25 µM in assay [2] (Well no.=853) was 105%. As to `O=C1CCCN1CC#CCN1CCCC1` [Oxotremorine sesquifumarate salt], the remaining activity at 1.25 µM in assay [2] (Well no.=946) came to 103%. Consider `COc1cc2nc(N3CCN(C(=O)c4ccco4)CC3)nc(N)c2cc1OC` [Prazosin hydrochloride], for which the remaining activity at 1.25 µM in assay [2] (Well no.=1349) came to 98.8%. As to `CN(C)CCCN1c2ccccc2Sc2ccccc21` [Promazine (hydrochloride)], the remaining activity at 1.25 µM in assay [2] (Well no.=6711) is 103%.

On to `CC(CN1c2ccccc2Sc2ccccc21)N(C)C` (centres unmarked) [Promethazine (hydrochloride)], for which the remaining activity at 1.25 µM in assay [2] (Well no.=6811) was 99.3%.

For the compound `CCCCC[C@H](O)/C=C/[C@@H]1[C@@H](C/C=C\CCCC(=O)O)[C@@H](O)C[C@H]1O` [Prostaglandin F2a], in assay [2] (Well no.=3094), the remaining activity at 1.25 µM was 107%. For `Cc1cc2c(cc1Cl)N(C(=O)Nc1ccc(Oc3cccnc3C)nc1)CC2` [SB 242084], the remaining activity at 1.25 µM in assay [2] (Well no.=7137) is 103%. With `CC1(C)[C@H](C(=O)O)N2C(=O)C[C@H]2S1(=O)=O` [Sulbactam], the remaining activity at 1.25 µM is 106% in assay [2] (Well no.=2023) and 101% in assay [2] (Well no.=7450). As for `CC(=O)O[C@H]1C(=O)[C@@]2(C)[C@H]([C@H](OC(=O)c3ccccc3)[C@]3(O)C[C@H](OC(=O)[C@H](O)[C@@H](NC(=O)c4ccccc4)c4ccccc4)C(C)=C1C3(C)C)[C@]1(OC(C)=O)CO[C@@H]1C[C@@H]2O` [Taxol], the remaining activity at 1.25 µM in assay [2] (Well no.=1180) came to 92.6%; in assay [2] (Well no.=1999) it was 103%; in assay [2] (Well no.=3180), 106%.

For `Cn1c(=O)c2nc[nH]c2n(C)c1=O` [Theophylline], the remaining activity at 1.25 µM was 97.1% in assay [2] (Well no.=1235), 110% in assay [2] (Well no.=6249) and 98.3% in assay [2] (Well no.=8277).
